# Laboratory results from ChEMBL document CHEMBL4406836, “The design of a cell-selective fowlicidin-1-derived peptide with both antimicrobial and anti-inflammatory activities” (Eur J Med Chem, 2019).
# Activity calls are given as the source filed them. The calls are words filed in the database; no cut-off is given here.
# Assays:
# [1] = system: RAW264.7; experiment: Antiinflammatory activity in mouse RAW264.7 cells assessed as reduction in LPS-induced iNOS gene expression at 4 uM incubated for 3 hrs by qRT-PCR analysis; type: functional, cell-based
# [2] = system: RAW264.7; experiment: Antiinflammatory activity in mouse RAW264.7 cells assessed as reduction in LPS-induced TNFalpha gene expression at 8 uM incubated for 6 hrs by qRT-PCR analysis; type: functional, cell-based
# [3] = system: Staphylococcus aureus; experiment: Antibacterial activity against methicillin-resistant Staphylococcus aureus CCARM 3089 assessed as reduction in bacterial growth at 8 uM incubated for 72 hrs in presence of oxacillin by spectrophotometry; type: functional; settings: CCARM 3089, 72 h
# [4] = system: Lipopolysaccharide (LPS); experiment: Displacement of BODIPY-TR-cadaverine from Escherichia coli O111:B4 LPS by fluorescence spectrophotometry
# [5] = system: Salmonella typhimurium; experiment: Antibacterial activity against Salmonella typhimurium KCTC 1926 assessed as reduction in bacterial growth incubated for 18 hrs by spectrophotometry based microtiter broth dilution method; type: functional, Salmonella enterica subsp. enterica serovar Typhimurium; settings: Salmonella enterica, KCTC 1926, 18 h
# [6] = system: Staphylococcus aureus; experiment: Antibacterial activity against Staphylococcus aureus KCTC 1621 assessed as reduction in bacterial growth incubated for 18 hrs in presence of 2.5 mM CaCl2 by spectrophotometry based microtiter broth dilution method; type: functional; settings: KCTC 1621, 18 h
# [7] = system: Staphylococcus aureus; experiment: Potency index, ratio of MIC of melittin to MIC of compound for antibacterial activity against methicillin-resistant Staphylococcus aureus CCARM 3095 assessed as reduction in bacterial growth incubated for 18 hrs by spectrophotometry based microtiter broth dilution method; type: functional
# [8] = system: Lipopolysaccharide (LPS); experiment: Displacement of BODIPY-TR-cadaverine from Escherichia coli O111:B4 LPS at 16 uM by fluorescence spectrophotometry relative to control
# [9] = system: Pseudomonas aeruginosa; experiment: Antibacterial activity against Pseudomonas aeruginosa KCTC 1637 assessed as reduction in bacterial growth incubated for 18 hrs by spectrophotometry based microtiter broth dilution method; type: functional; settings: KCTC 1637, 18 h
# [10] = system: Escherichia coli; experiment: Antibacterial activity against Escherichia coli KCTC 1682 assessed as reduction in bacterial growth incubated for 18 hrs in presence of 2.5 mM CaCl2 by spectrophotometry based microtiter broth dilution method; type: functional; settings: KCTC 1682, 18 h
# [11] = system: Staphylococcus aureus; experiment: Antibacterial activity against methicillin-resistant Staphylococcus aureus CCARM 3089 assessed as reduction in bacterial growth at 4 uM incubated for 72 hrs in presence of ciprofloxacin by spectrophotometry; type: functional; settings: CCARM 3089, 72 h
# [12] = system: Enterococcus faecium; experiment: Potency index, ratio of MIC of melittin to MIC of compound for antibacterial activity against vancomycin-resistant Enterococcus faecium ATCC 51559 assessed as reduction in bacterial growth incubated for 18 hrs by spectrophotometry based microtiter broth dilution method; type: functional
# [13] = system: Staphylococcus epidermidis; experiment: Antibacterial activity against Staphylococcus epidermidis KCTC 1917 assessed as reduction in bacterial growth incubated for 18 hrs by spectrophotometry based microtiter broth dilution method; type: functional; settings: KCTC 1917, 18 h
# [14] = system: Escherichia coli; experiment: Antibacterial activity against Escherichia coli KCTC 1682 assessed as reduction in bacterial growth incubated for 18 hrs in presence of 20 % human serum by spectrophotometry based microtiter broth dilution method; type: functional; settings: KCTC 1682, 18 h
# [15] = system: Escherichia coli; experiment: Antibacterial activity against Escherichia coli KCTC 1682 assessed as reduction in bacterial growth incubated for 18 hrs in presence of 6 uM NH4Cl by spectrophotometry based microtiter broth dilution method; type: functional; settings: KCTC 1682, 18 h
# [16] = system: Escherichia coli; experiment: Antibacterial activity against Escherichia coli KCTC 1682 assessed as reduction in bacterial growth incubated for 18 hrs by spectrophotometry based microtiter broth dilution method; type: functional; settings: KCTC 1682, 18 h
# [17] = system: Staphylococcus aureus; experiment: Antibacterial activity against Staphylococcus aureus KCTC 1621 assessed as reduction in bacterial growth incubated for 18 hrs in presence of 150 mM NaCl by spectrophotometry based microtiter broth dilution method; type: functional; settings: KCTC 1621, 18 h
# [18] = system: Erythrocyte; experiment: Hemolytic activity in sheep RBC assessed as minimal hemolytic concentration causing 10% hemolysis incubated for 2 hrs by ELISA; type: ADME, cell-based, Ovis aries
# [19] = system: Staphylococcus aureus; experiment: Antibacterial activity against Staphylococcus aureus KCTC 1621 assessed as reduction in bacterial growth incubated for 18 hrs in presence of 20% human serum by spectrophotometry based microtiter broth dilution method; type: functional; settings: KCTC 1621, 18 h
# [20] = system: Staphylococcus aureus; experiment: Potency index, ratio of MIC of LL-37 to MIC of compound for antibacterial activity against methicillin-resistant Staphylococcus aureus CCARM 3095 assessed as reduction in bacterial growth incubated for 18 hrs by spectrophotometry based microtiter broth dilution method; type: functional
# [21] = system: Staphylococcus aureus; experiment: Antibacterial activity against methicillin-resistant Staphylococcus aureus CCARM 3089 assessed as reduction in bacterial growth at 4 uM incubated for 72 hrs in presence of oxacillin by spectrophotometry; type: functional; settings: CCARM 3089, 72 h
# [22] = system: Pseudomonas aeruginosa; experiment: Potency index, ratio of MIC of LL-37 to MIC of compound for antibacterial activity against multidrug-resistant Pseudomonas aeruginosa CCARM 2109 assessed as reduction in bacterial growth incubated for 18 hrs by spectrophotometry based microtiter broth dilution method; type: functional
# [23] = system: Enterococcus faecium; experiment: Potency index, ratio of MIC of LL-37 to MIC of compound for antibacterial activity against vancomycin-resistant Enterococcus faecium ATCC 51559 assessed as reduction in bacterial growth incubated for 18 hrs by spectrophotometry based microtiter broth dilution method; type: functional
compound,measurement,setting,value
CC[C@H](C)[C@H](NC(=O)[C@H](CCCCN)NC(=O)[C@H](CCC(=O)O)NC(=O)[C@H](CCCCN)NC(=O)[C@H](CO)NC(=O)[C@H](CCCCN)NC(=O)[C@H](CCCNC(=N)N)NC(=O)[C@H](Cc1ccccc1)NC(=O)[C@H](Cc1ccccc1)NC(=O)[C@H](CC(=O)O)NC(=O)CNC(=O)[C@H](CC(C)C)NC(=O)[C@@H](N)CC(C)C)C(=O)NCC(=O)N[C@@H](CCCCN)C(=O)N[C@@H](CCC(=O)O)C(=O)N[C@@H](Cc1ccccc1)C(=O)N[C@@H](CCCCN)C(=O)N[C@@H](CCCNC(=N)N)C(=O)N[C@H](C(=O)N[C@H](C(=O)N[C@@H](CCC(N)=O)C(=O)N[C@@H](CCCNC(=N)N)C(=O)N[C@H](C(=O)N[C@@H](CCCCN)C(=O)N[C@@H](CC(=O)O)C(=O)N[C@@H](Cc1ccccc1)C(=O)N[C@@H](CC(C)C)C(=O)N[C@@H](CCCNC(=N)N)C(=O)N[C@@H](CC(N)=O)C(=O)N[C@@H](CC(C)C)C(=O)N[C@H](C(=O)N1CCC[C@H]1C(=O)N[C@@H](CCCNC(=N)N)C(=O)N[C@H](C(=O)N[C@@H](CCC(=O)O)C(=O)N[C@@H](CO)C(=O)O)[C@@H](C)O)C(C)C)[C@@H](C)CC)C(C)C)[C@@H](C)CC [CATHELICIDIN],inhibition,[1],Active
same,inhibition,[2],Active
same,MIC,[3],2 µM
H-LVIRWVRAGYKLYRAIKKK-NH2,inhibition,[4],Dose-dependent effect
same,MIC,[5],2 µM
same,MIC,[6],2 µM
same,Ratio,[7],2 - 8
same,inhibition,[8],100%
same,MIC,[9],8 µM
same,MIC,[10],4 µM
same,MIC,[11],0.5 µM
same,Ratio,[12],2 - 8
same,MIC,[13],4 µM
same,MIC,[14],8 µM
same,MIC,[15],4 µM
same,MIC,[16],4 µM
same,MIC,[17],2 µM
same,MHC10,[18],105 µM
same,MIC,[19],4 µM
same,Ratio,[20],2 - 8
same,MIC,[21],1 µM
same,Ratio,[22],2 - 8
same,Ratio,[23],2 - 8
